Four molecules from patent US4594337A, “Methods of controlling mycoplasma infections” (Eli Lilly and Company, priority 1985, dated 1986) can be followed below.

What all share (type): cell-based
In experiment [1] the test system is Mycoplasma hyorhinis S-41313. The experiment in a line: MIC, conventional broth-dilution microtiter test, Mycoplasma hyorhinis S-41313. The note with it: S41313. From the text: (§1) The MIC's in Table I were obtained using a conventional broth-dilution microtiter test.
Experiment [2] concerns Mycoplasma gallisepticum 41313. The experiment is described as follows: MIC, conventional broth-dilution microtiter test, Mycoplasma gallisepticum 41313 (tylosin-resistant). Particulars: Mycoplasmoides gallisepticum, Mycoplasma gallisepticum 41313, tylosin-resistant strain.
From the text: as §1

In experiment [3] the test system is Mycoplasma gallisepticum 34159. The experiment is described as follows: MIC, conventional broth-dilution microtiter test, Mycoplasma gallisepticum 34159 (tylosin-resistant). Particulars: Mycoplasmoides gallisepticum, Mycoplasma gallisepticum 34159, tylosin-resistant strain.
From the text: as §1

The subject of experiment [4] is Mycoplasma gallisepticum 38502. The experiment in a line: MIC, conventional broth-dilution microtiter test, Mycoplasma gallisepticum 38502 (tylosin-susceptible). Particulars: Mycoplasmoides gallisepticum, Mycoplasma gallisepticum 38502, tylosin-susceptible strain.
From the text: as §1

Experiment [5] concerns Mycoplasma hyopneumoniae S-5972. The experiment in a line: MIC, conventional broth-dilution microtiter test, Mycoplasma hyopneumoniae S-5972. The note with it: Mesomycoplasma hyopneumoniae, S5972.
From the text: as §1

In experiment [6] the test system is Mycoplasma synoviae 46995. The experiment is described as follows: MIC, conventional broth-dilution microtiter test, Mycoplasma synoviae 46995. The note with it: Mycoplasmopsis synoviae.
From the text: as §1

Values after ≈ are worked out from the molar mass of the structure shown. Some results are limits rather than exact numbers.

In the case of `CCCC(=O)OC1C(C)OC(OC2C(C)OC(OC3C(CC=O)CC(C)C(=O)C=CC(C)=CC(COC4OC(C)C(O)C(O)C4OC)C(CC)OC(=O)CC(OC(C)=O)C3C)C(O)C2N(C)C)CC1(C)O` (stereo not shown) [3-Acetyl-4"-(n-Butyryl)-macrocin, 3-O-acetyl-4"-O-(n-butyryl)macrocin], the MIC (commonly the lowest concentration that inhibits growth of the organism) in experiment [1] was 0.39 µg/mL (≈ 0.385 µM); in experiment [2] it was 3.12 µg/mL (≈ 3.08 µM); in experiment [3] it was 6.25 µg/mL (≈ 6.16 µM); in experiment [4], 0.195 µg/mL (≈ 0.192 µM); in experiment [5], 0.048 µg/mL (≈ 0.0473 µM); in experiment [6] it was at most 0.048 µg/mL.

Turning to `CCC1OC(=O)CC(OC(C)=O)C(C)C(OC2OC(C)C(OC3CC(C)(O)C(OC(=O)CC(C)C)C(C)O3)C(N(C)C)C2O)C(CC=O)CC(C)C(=O)C=CC(C)=CC1COC1OC(C)C(O)C(O)C1OC` (stereo not shown) [3-Acetyl-4"-Isovaleryl-macrocin, 3-O-acetyl-4"-O-isovalerylmacrocin], the MIC was 0.39 µg/mL (≈ 0.379 µM) in experiment [1]; 3.12 µg/mL (≈ 3.03 µM) in experiment [2]; 3.12 µg/mL (≈ 3.03 µM) in experiment [3]; at most 0.048 µg/mL in experiment [4]; 0.048 µg/mL (≈ 0.0467 µM) in experiment [5]; at most 0.048 µg/mL in experiment [6].

For `CCC1OC(=O)CC(OC(C)=O)C(C)C(OC2OC(C)C(O)C(N(C)C)C2O)C(CC=O)CC(C)C(=O)C=CC(C)=CC1COC1OC(C)C(O)C(O)C1OC` (stereo not shown) [3-Acetyl-lactenocin, 3-O-Acetyllactenocin], the MIC in experiment [1] was 25 µg/mL (≈ 31.3 µM); in experiment [2] it was 50 µg/mL (≈ 62.5 µM); in experiment [3], above 50 µg/mL; in experiment [4] it was 0.78 µg/mL (≈ 0.975 µM); in experiment [6], 0.39 µg/mL (≈ 0.488 µM).

Turning to `CCC1OC(=O)CC(OC(C)=O)C(C)C(OC2OC(C)C(OC3CC(C)(O)C(O)C(C)O3)C(N(C)C)C2O)C(CC=O)CC(C)C(=O)C=CC(C)=CC1COC1OC(C)C(O)C(O)C1OC` (stereo not shown) [3-Acetyl-macrocin, 3-O-Acetylmacrocin], the MIC in experiment [1] was 6.25 µg/mL (≈ 6.62 µM); in experiment [2] it was 50 µg/mL (≈ 53 µM); in experiment [3], 50 µg/mL (≈ 53 µM); in experiment [4] it was 0.78 µg/mL (≈ 0.826 µM); in experiment [6], 0.39 µg/mL (≈ 0.413 µM).
